Tests used:
[1] = test system: SVG p12 cells; assay: MTT cell viability assay, SVG p12; format: cell-based, human; conditions: for IC50: Homo sapiens, SVGp12, 72 h treatment, MTT, normal glial cell line; for Selectivity Index: IC50 SVG p12 vs average IC50 in A-172, U87 and U87-TxR
Experimental: (§1) Cell viability was measured using the colorimetric MTT assay based on the reduction of MTT into formazan dye. Cell lines were seeded into 96-well cell culture plates (4000 cells/well) in appropriate medium. After overnight incubation, cells were treated with increasing concentrations of 1, 2, 3, 4, 5, and 6 (0.5, 1, 2, 4, and 8 µM). After 72 h treatment, MTT solution (4 mg/mL) was added and plates were incubated at 37 °C with 5% CO2 for 3 h. After incubation, formazan crystals were dissolved using 100 µL DMSO, resulting in a purple color. The absorbance was measured at 570 nm with a reference wavelength of 690 nm using an automated microplate reader (MultiskanSky, Thermo Scientific, USA). The IC50 values were determined by non-linear regression analysis in GraphPad Prism 8.0.2. software (GraphPad Software, Boston, MA, USA).

[2] = test system: antioxidant-related gene mRNA in U87 cells; assay: RT-qPCR of oxidative-stress-related genes, U87; format: cell-based, human; conditions: U87, 4 µM, 24 h; for increase in GPX1 mRNA expression: relative to untreated control
Experimental: (§2) Prior to RNA isolation, U87 and U87-TxR cell were treated with 4 μM 2 and 5 for 24 h. TRIzol® Reagent was used to isolate total RNA according to manufacturer’s instructions. RNA concentration was determined with NanoPhotometer N60 (Implen GmbH, Munchen, Germany). Quality was determined using electrophoresis on a 1.3% agarose gel. Reverse transcription reaction was carried out using High-Capacity cDNA Reverse Transcription Kit with RNase Inhibitor.
(§3) Quantitative RT-PCR (RT-qPCR) was performed to evaluate mRNA expression levels of CAT, GSR, SOD2, GPX1, GPX4, GST, TRX1, and TRXR1, with ACTB used as the reference gene. Reactions were carried out using Maxima SYBR Green/ROX qPCR Master Mix (Thermo Fisher Scientific, Waltham, MA, USA) in the QuantStudio™ 3 Real-Time PCR System (Applied Biosystems by Thermo Fisher Scientific). Thermocycling conditions consisted of an initial incubation at 50 °C for 5 min, followed by denaturation at 95 °C for 10 min and then 40 cycles of amplification with denaturation at 95 °C for 15 s and annealing/extension at 60 °C for 60 s. Relative gene expression levels were calculated using the ΔΔCt method, normalizing target gene expression to ACTB. All reactions were performed in technical triplicates.

[3] = test system: U87-TxR cells; assay: Cell death detection, AV/PI staining, U87-TxR; format: cell-based, human; conditions: 48 h; for cell death effect in MDR U87-TxR cells vs sensitive U87 cells: 4 µM, AV/PI; for percentage of early apoptotic cells vs untreated: 2 µM and 4 µM, particularly at 4 µM
Experimental: To evaluate the extent of cell death upon treatment with adamantane–sclareol hybrids, apoptotic, necrotic, and viable cell populations were assessed using dual staining with AV/PI. U87 and U87-TxR cells were seeded in 6-well plates at a density of 150,000 cells per well and incubated overnight. Subsequently, cells were treated with 2 and 5 (2 µM and 4 µM) for 48 h. At the end of the treatment period, cells were collected (both adherent and floating), washed, and incubated with AV/PI in binding buffer. Samples were analyzed using a CytoFLEX flow cytometer (Beckman Coulter, Indianapolis, IN, USA), with fluorescence signals detected at 525 nm (AV) and 585 nm (PI). At least 10,000 events were recorded per each condition. The percentages of viable (AV^− PI^−), early apoptotic (AV^+ PI^−), late apoptotic (AV^+ PI^+), and necrotic (AV^− PI^+) cells were calculated using CytExpert 2.4.0.28 software (Beckman Coulter, Indianapolis, IN, USA).

[4] = test system: U87-TxR cells; assay: Combination with PTX, MTT assay; format: cell-based, human; conditions: for combination index (CI) with PTX: CalcuSyn, 0.5-2 µM compound with 0.1-0.5 µM PTX, 72 h, CI < 1 synergistic
Experimental: as §1
The combined effects of 2 and 5 with PTX were studied in U87-TxR cells by MTT assay as previously described. In simultaneous treatments that lasted 72 h, three concentrations of 2 and 5 (0.5, 1, and 2 µM) were combined with three concentrations of PTX (0.1 μM, 0.2 μM, and 0.5 μM). Drug combination effects were evaluated using the Chou–Talalay method, which calculates the combination index (CI) value for the degree of interaction between the drugs. This method allows quantitative assessment of synergism (CI < 1), additivity (CI close to 1), or antagonism (CI > 1) across a range of dose–effect relationships. Calcusyn® version 1.1 software was used for data analysis (Biosoft, Cambridge UK). Three data points were used for each single drug in each designed experiment. The non-constant ratio combination was chosen to assess the effect of both drugs in combination. The results are presented in a fraction-affected CI graph.

[5] = test system: antioxidant-related gene mRNA in U87-TxR cells; assay: RT-qPCR of oxidative-stress-related genes, U87-TxR; format: cell-based, human; conditions: 4 µM, 24 h; for increase in GPX1 mRNA expression: relative to untreated control
Experimental: as §2, §3

[6] = test system: H2O2 and peroxynitrite anion levels in U87-TxR cells; assay: ROS detection by DHR, U87-TxR; format: cell-based, human; conditions: 4 µM, 24 h and 48 h
Experimental: (§4) The levels of ROS were measured in U87 and U87-TxR cells by flow cytometry. The production of superoxide anions was detected using DHE fluorescence dye, while production of H2O2 and peroxynitrite anions was detected using DHR fluorescence dye. Cells were seeded in 6-well plates (150,000 cell/well) and incubated overnight. The cells were then treated with compounds 2 or 5 (4 μM) for 24 h and 48 h. CDDP (10 μM) was used as a positive control. After the treatment period, the cells were stained with DHE or DHR for 30 min in the dark. Following incubation, cells were harvested with trypsinization and washed twice in cold phosphate buffer solution (PBS). Fluorescence was measured on a CytoFlex flow cytometer (Beckman Coulter, Indianapolis, IN, USA). Green fluorescence from the oxidized DHR dye was detected at 525 nm, while the red fluorescence from ethidium derived from DHE was detected at 585 nm. At least 10,000 events were assayed for each sample. The results were analyzed by CytExpert 2.4.0.28 software (Beckman Coulter, Indianapolis, IN, USA).

[7] = test system: intracellular superoxide anion in U87 and U87-TxR cells; assay: Superoxide anion detection by DHE; format: cell-based, human; conditions: 4 µM, 24 h and 48 h
Experimental: as §4

[8] = test system: U87-TxR cells; assay: MTT cell viability assay, U87-TxR; format: cell-based, human; conditions: Homo sapiens, U87-TxR; 72 h treatment, MTT, MDR cell line
Experimental: as §1

[9] = test system: U87 cells; assay: MTT cell viability assay, U87; format: cell-based; conditions: Homo sapiens, U-87 MG, 72 h treatment
Experimental: as §1

Row | SMILES | IC50 [1] [µM] | Selectivity Index [1] | CAT mRNA expression levels [2] | GSTP gene expression [2] | increase in GPX1 mRNA expression [2] [fold] | cell death effect in MDR U87-TxR cells vs sensitive U87 cells [3] | percentage of early apoptotic cells vs untreated [3] | Relative Reversal ([4]; 0.5 µM of the compound) | Relative Reversal ([4]; 1.0 µM of the compound) | Relative Reversal ([4]; 2.0 µM of the compound) | combination index (CI) with PTX [4] | CAT mRNA expression levels [5] | GSTP gene expression [5] | mRNA expression of SOD2, GSR, and GPX4 [5] | increase in GPX1 mRNA expression [5] [fold] | DHR fluorescence (H2O2 and peroxynitrite anion levels) [6] | intracellular superoxide anion levels (DHE) [7] | IC50 [8] [µM] | IC50 [9] [µM] | further results
1 | CC1(C)CCC[C@]2(C)[C@@H](CC[C@@](C)(O)/C=C/c3ccc(CNCCCCCCCCNCC45CC6CC(CC(C6)C4)C5)o3)[C@](C)(O)CC[C@@H]12 [Compound 5] | 6.69 ± 0.128 | 1.470 | remained unchanged | significantly increased | 2.2 | significantly better effects in MDR U87-TxR cells | significant increase | 0.86 | 1.85 | 1.76 | < 1 | remained unchanged | significantly increased | increase | 1.5 | increase in DHR fluorescence | no significant changes | 3.78 ± 0.118 | 5.13 ± 0.139 | early apoptotic population (AV+ PI−) ([3]; untreated cells 4.17%, Figure S3): 32.6%
2 | CC1(C)CCC[C@]2(C)[C@@H](CC[C@@](C)(O)/C=C/c3ccc(CNCCCCCCCCNCC45CC6CC(CC(C6)C4)C5)s3)[C@](C)(O)CC[C@@H]12 [Compound 2] | 6.2 ± 0.145 | 2.813 ^S | remained unchanged | significantly increased | 1.8 | significantly better effects in MDR U87-TxR cells | significant increase | 1.75 | 1.68 | 3.05 | < 1 | remained unchanged | significantly increased | increase | 1.9 | increase in DHR fluorescence | no significant changes | 1.96 ± 0.049 | 2.59 ± 0.068 | TRX1 mRNA [2]: significant downregulation
